The values that follow come from patent US11702663B2, “Bacteria-based protein delivery” (Universitaet Basel, priority 2015, dated 2023).

One assay deals with B16F10 cells. It is filed as cell-based, murine.
Assay [1] relates to HeLa cells. It is filed as cell-based, human.
Another assay deals with 4T1 cells. It is filed as cell-based, murine.
Another assay concerns D2A1 cells. It is filed as cell-based.
Assay [2] has as its system HeLa cells. It is filed as cell-based, human. This is another data set of the same source.
Assay [3] has as its system HeLa cells. It is filed as cell-based, human. The source holds these as a separate data set.
Assay [4] has as its system HeLa cells. Nature of the assay: Western blotting of T3SS translocated proteins from infected cells (digitonin lysis). It is filed as cell-based, human. The note with it: HeLa cells coinfected with strain delivering 2×TEV cleavage site substrate, 2 h, MOI of 100. An excerpt:
Western blotting of T3SS translocated proteins from infected cells. HeLa cells in 6-well plates were infected at an MOI of 100 as described above. In case of coinfection with the TEV protease translocating Y. enterocolitica strain, the OD600 of the strains was set and the two bacterial suspensions were mixed in a tube at a ratio of 1:1 (if not otherwise indicated) before addition to the cells. At the end of the infection, the cells were washed twice with ice-cold PBS and collected by scraping in a small volume of ice-cold PBS. After centrifugation (16 000 rcf, 5 min, 4° C.) the pellet was dissolved in 0.002% digitonin supplemented with a protease inhibitor cocktail (Roche complete, Roche). The dissolved pellets were incubated for 5 minutes on ice and then centrifuged (16 000 rcf, 25 min, 4° C.). Supernatants were collected and analyzed for total protein content by […] (Pierce) before SDS PAGE and Western blotting using an anti-Myc (Santa Cruz, 9E11) or anti-Ink4C (Cell Signaling) antibody.
Background: In western blotting, separated proteins are transferred to a membrane and probed.

The subject of assay [5] is 4T1 murine breast cancer cells. It is filed as cell-based.
The test system of assay [6] is B16F10 murine melanoma cells. It is filed as cell-based.
In another assay the test system is p38. It is filed as cell-based, human.
For another assay, the system named is Akt. It is filed as cell-based, human.
Assay [7] concerns HeLa cells. It is filed as cell-based, human. This is another data set of the same source.
The next assay relates to zebrafish embryos. As to conditions: in vivo.

For the molecule “BH3 domain of murine BAX: YopE1-138 fusion to BH3 domain of murine BAX, codon optimized for Y. enterocolitica”, the cell death entry in the assay with B16F10 cells, in the assay with HeLa cells [1], in the assay on 4T1 cells and in the assay with D2A1 cells was “induce massive cell death” each time.
Regarding “BH3 domain of murine BID: YopE1-138 fusion to BH3 domain of murine tBID, codon optimized for Y. enterocolitica”, the cell death entry in the assay with B16F10 cells, in the assay on HeLa cells [1], with 4T1 cells and in the assay on D2A1 cells was “induce massive cell death” each time.
Turning to “BepA: YopE1-138 fusion to full length type IV effector BepA from B. henselae”, the cAMP production entry with HeLa cells [2] is “triggered cAMP production in expected amounts”.
Still for that read-out and setting: in the case of “BepAE305-end: YopE1-138 fusion to BepA E305-end containing the C-terminal Bid domain” it was “triggered cAMP production in expected amounts”; in that of “BepG: YopE1-138 fusion to the Bid domain of the B. henselae effector BepG”, “failed to induce cAMP”.
For “Murine tBID fused to full length SteA: full length SteA fused to murine tBID, delivered by S. enterica”, the “apoptosis induction (CASP3 p17 subunit)” value in the assay on HeLa cells [3] is “lead to apoptosis induction”.
“TEV protease: TEV protease (S219V variant) fused to YopE1-138”: the “activity of T3SS delivered TEV protease” value with HeLa cells [4] is listed as “functional”.
Turning to “YopE1-138-(tBID BH3)2: murine BH3 domain of tBID fused to itself, fused to YopE1-138”, in assay [5], the “IC50 (MOI), pBad-MycHisA based delivery compared with pYV encoded” value was “slightly decreased IC50 value”; the “capacity of inducing apoptosis, IC50 (MOI needed to kill 50% of cells)” value was “decreased upon delivery of tandem repeats of tBID BH3 domain as compared to a single tBID BH3 domain”; the “cell death (nuclear count)” value is reported as “more active than YopE1-138-(tBID-BH3) at lower MOI”; the “efficiency of cell killing, IC50 (MOI needed to kill 50% of cells)” value is given as “decreased upon delivery of tandem repeats of tBID BH3 domain as compared to a single tBID BH3 domain”. Also, in assay [6], the “IC50 (MOI), pBad-MycHisA based delivery compared with pYV encoded” value is reported as “slightly decreased IC50 value”; the “capacity of inducing apoptosis, IC50 (MOI needed to kill 50% of cells)” value is listed as “decreased upon delivery of tandem repeats of tBID BH3 domain as compared to a single tBID BH3 domain”; the “cell death (nuclear count)” value was “more active than YopE1-138-(tBID-BH3) at lower MOI”; the “efficiency of cell killing, IC50 (MOI needed to kill 50% of cells)” value is on record as “decreased upon delivery of tandem repeats of tBID BH3 domain as compared to a single tBID BH3 domain”.
“YopE1-138-(tBID-BH3)-(BAX-BH3): murine BH3 domain of tBID fused to murine BH3 domain of BAX, fused to YopE1-138”: the “cell death (nuclear count)” value in assay [5] and in assay [6] was “more active than YopE1-138-(tBID-BH3) at lower MOI” each time.
Take “YopE1-138-(tBID-BH3): BH3 domain of murine tBID fused to YopE1-138, control for repeated domain constructs”: the “cell death (nuclear count)” value in [5] and in [6] was “triggered cell death” each time.
Take “YopE1-138-BID: YopE1-138 fusion to human BH3 interacting-domain death agonist (BID)”: in the assay with HeLa cells [1], the “apoptosis induction / cell death” value is on record as “failed to induce apoptosis”.
As for “YopE1-138-OspF: YopE1-138 fusion to S. flexneri type III effector OspF, a phosphothreonine lyase”, the “TNFα-induced p38 phosphorylation” value in the assay with p38 is given as “TNFα-induced phosphorylation was abolished”.
“YopE1-138-SopB: YopE1-138 fusion to Salmonella type III effector SopB”: the “phosphorylation of Akt at T308 and S473” value in the assay on Akt is “induced a strong phosphorylation of Akt at T308 and S473”.
For the molecule “YopE1-138-SopE-Myc: YopE1-138 fusion to SopE with MycHis tag”, in the assay on HeLa cells [7], the F-actin rearrangements entry was “triggered massive F-actin rearrangements”.
In the case of “YopE1-138-SopE: YopE1-138 fusion to SopE from Salmonella enterica, a guanine nucleotide exchange factor”, the “phosphorylation of Akt at T308 and S473” value in the assay with Akt is on record as “had no effect on Akt”. For the same molecule, in the assay with HeLa cells [7], the “changes in the actin network” value was “induced dramatic changes in the actin network” and the “first changes in the actin cytoskeleton observed” value came to 2 min p.i.
As for “YopE1-138-SptP: YopE1-138 fusion to SptP, a GTPase activating protein (GAP) for Cdc42”, the “effect of co-infection on F-actin rearrangements triggered by YopE1-138-SopE-Myc” value in the assay on HeLa cells [7] is recorded as “abolished this effect in a dose dependent manner”.
For the molecule “YopE1-138-tBID: YopE1-138 fusion to human truncated BID (tBID)”, in the assay on HeLa cells [1], the “apoptosis induction / cell death” value is recorded as “triggered cell death in larger extend than the well-characterized apoptosis inducer staurosporin”; the “apoptotic response (confocal images, mitochondrial integrity)” value was “induces a rapid apoptotic response”; the “production of CASP3 p17 subunit” value is “lead to the production of CASP3 p17 subunit, even in larger amounts as with staurosporin”.
On to “YopE1-138-z-BIM: YopE1-138 fusion to zebrafish apoptosis inducer z-BIM”, for which the “apoptosis induction / cell death” value in the assay on HeLa cells [1] is reported as “showed clear signs of cell death”. In the assay on zebrafish embryos, the “apoptosis in nearby cells, automated image analysis on maximum intensity z projections” value is “induce apoptosis in nearby cells by far more than control bacteria do” and the “cleaved CASP3 (p17) staining in regions surrounding the bacteria” value is given as “strong increase in presence of cleaved CASP3”.
On to “murine tBID: murine tBID codon optimized for Y. enterocolitica fused to YopE1-138”, for which the cell death entry in the assay with B16F10 cells, in the assay with HeLa cells [1], with 4T1 cells and with D2A1 cells was “triggered cell death” each time.

B1: SteA1-20 fused murine tBID: 20 N-terminal amino acids of SteA fused to murine tBID, delivered by S. enterica (protein)
chain: MPYTSVSTYARALSGNKLPHGTGSQASRSFNQGRIEPDSESQEEIIHNIARHLAQIGDEMDHNIQPTLVRQLAAQFMNGSLSEEDKRNCLAKALDEVKTAFPRDMENDKAMLIMTMLLAKKVASHAPSLLRDVFHTTVNFINQNLFSYVRNLVRNEMD
modifications: SteA1-20 - S. enterica codon optimized murine t-BID
notes: 20 N-terminal amino acids of SteA fused to murine tBID, delivered by S. enterica
On to B1, for which, in the assay with HeLa cells [3], the “apoptosis induction (CASP3 p17 subunit)” value is “failed to induce apoptosis”.
